In experiment [1] the target is S-BG (Novozymes SP188 from Sigma), commercial beta-glucosidase. The experiment in a line: BG kinetics, cellobiose hydrolysis assay (HPLC) with glucose as competitive inhibitor, S-BG. It is filed as biochemical. Conditions: pH 4.8, 50° C. From the text: The kinetic properties of beta glucosidase are important for cellulosic hydrolysis, since in commercial situations a wide range of substrate concentrations and different product inhibition conditions will be encountered. In this example, a Michaelis-Menten kinetics model was used to describe BG kinetics. To determine these kinetic properties, BG activity assays using standard substrates pNPG and cellobiose were employed. yEdQ745-BG (wild type) and yEdQ885-BG (improved), were compared with two commercial BGs, A-BG (Accellerase®) BG from Dupont) and S-BG (Novozymes SP188 from Sigma).
BG activity assay using cellobiose is the other standard assay to measure BG or cellobiase activity, which utilizes hydrolysis of cellobiose by cellobiase into two molecules of glucose, the last step of enzymatic hydrolysis of cellulose. One cellobiase unit (commonly termed as CBU) is defined as the amount of enzyme that converts […] of cellobiose or produces 2 μmol of glucose per min. Briefly, to determine BG activity, 25 μL of diluted enzyme in 50 mM citrate buffer (pH 4.8) equilibrated to 50° C. was mixed with 25 μL cellobiose (or cellobiose/glucose mixture for the kinetic study) to start the reaction. The mixture was incubated at 50° C. for 10 min, and the reaction was terminated by incubating the mixture at 99° C. for 5 min. Different methods are available to measure the glucose produced in the assays. For the kinetic study, HPLC was used.
To determine kinetic properties using cellobiose substrate, duplicate assays with cellobiose concentrations ranging from 0.47 to 15 mM and glucose concentrations of 0, 0.9, 4.5, 6.75, and 8.1 (for A-BG) or 9 (for all the other three BGs) g/L were performed. As for pNPG substrate, the range of cellobiose substrate concentration was chosen to show detectable activity at the lowest substrate concentration and saturation stage at high substrate concentration. However, in contrast to the pNPG substrate, when there was still some activity left at glucose concentration up to 36 g/L, most of the BG activity was lost at an inhibitor level of 9 g/L when cellobiose substrate was used. […] It should also be noted that colorimetric glucose assay cannot provide activity results for inhibitory glucose levels above 0.9 g/L after several trials. Therefore, HPLC measurements were used for kinetic studies using cellobiose substrate. It should be pointed out that the HPLC method may not be sensitive enough either to capture BG activity under more severe glucose inhibition conditions than 9 g/L of glucose. Moreover, theoretically there are two ways to measure BG activity by HPLC when cellobiose is used as the substrate: tracking consumption of cellobiose or tracking production of glucose. However, as shown by the example of one set of results from S-BG in Table 3, tracking glucose is problematic due to measurement sensitivity. In Table 3, A % is defined as follows and is an indicator of measurement sensitivity, since the difference of substrate or product concentrations before and after reaction was used to determine BG activity. Δ%=(start conc. of cellobiose−end conc. of cellobiose)/start conc. of cellobiose×100% (3) Δ%=(end conc. of glucose−start conc. of glucose)/start conc. of glucose×100% (4)
With increasing inhibitor (glucose) level, Δ% is decreasing. For the case of tracking glucose, Δ% was too small to be reliable when 4.5 g/L of glucose was added at the beginning. […] Thus, the approach of tracking cellobiose was chosen due to its higher detection sensitivity. In the substrate range used to determine kinetic parameters (0.47 to 30 mM for A-BG and 0.47 to 15 mM for the other three BGs), the detection sensitivity is reasonable.
A similar simultaneous nonlinear regression method based on the competitive inhibition equation expressed in Equation (1) was used to determine kinetic parameters of BG towards cellobiose. […]

In experiment [2] the test system is A-BG (Accellerase® BG from DuPont), commercial beta-glucosidase. The experiment can be described thus: BG kinetics, pNPG hydrolysis assay with glucose as competitive inhibitor, A-BG. Format: biochemical. As to the method: The kinetic properties of beta glucosidase are important for cellulosic hydrolysis, since in commercial situations a wide range of substrate concentrations and different product inhibition conditions will be encountered. In this example, a Michaelis-Menten kinetics model was used to describe BG kinetics.
One pNPG unit is defined as the amount of enzyme that produces 1 μmol of pNP per min. Briefly, to determine BG activity, 25 μL of diluted enzyme in 200 mM sodium acetate buffer (pH 5.0) was mixed with 25 μL of the same buffer and 25 μL of RO water (or glucose solution for the kinetic study) and the mixture was preincubated at 50° C. for 5 min. The reaction was initiated by adding 25 μL of 10 mM pNPG in 200 mM sodium acetate buffer (pH 5.0) and the mixture was incubated at 50° C. for 10 min. The reaction was then terminated by adding 100 μL of 0.25 M sodium carbonate, and the amount of pNP produced was determined by measuring absorbance at 405 nm using a predetermined calibration curve.
The range of substrate concentration was chosen to show detectable activity at the lowest concentration and saturation stage at high substrate concentration.
To determine the kinetic properties, a competitive inhibition mechanism was hypothesized as proposed in the literature (Chauve et al, 2010; Krogh et al, 2010). The Michaelis-Menten equation with the competitive inhibition term can be expressed in Equation (1), where [S] is the substrate concentration (mM), [I] is the inhibitor concentration (mM), V is the rate of product formation (mM/min), Vmax is the maximal rate of product formation (mM/min), Km is the Michaelis-Menten constant and Ki is the inhibition constant. The turnover number, Kcat, can be calculated by Equation (2), where [Et] is the total amount of enzyme.
Conventionally, linearization methods can be used to determine the kinetic parameters based on Equation (1). Three common linear plots used are Lineweaver-Burke, Eadie-Hofstee and Hanes plots (Rogers and Gibon, 2009). However, these linearized versions of the Michaelis-Menten equation often produce substantial errors in parameter estimation. […] All of the activity data at different substrate levels and different inhibitor levels were fit simultaneously according to the full nonlinear equation for competitive enzyme inhibition as expressed in Equation (1). Thus, Vmax, Km and Ki can be determined simultaneously from this fitting process, and Km/Ki can then be calculated. Kcat can be obtained by Equation (2) and Kcat/Km can be calculated accordingly.
The above experimental data were fit in the competitive inhibition model as expressed in Equation (1) by simultaneous nonlinear regression.

One may read the Ki as a measure of affinity in units of concentration, obtained from inhibition or displacement. `OC[C@H]1OC(O)[C@H](O)[C@@H](O)[C@@H]1O` (stereo partly shown) [glucose]: the Ki worked out at 3130 ± 760 µM in experiment [1] (cellobiose substrate, competitive inhibition) and 460 ± 50 µM in experiment [2] (pNPG substrate, competitive inhibition, pH 5.0, 50° C.). Further, the Km/Ki in experiment [1] (inhibitor influence, Km for cellobiose / Ki for glucose) amounted to 0.51; in experiment [2] (inhibitor influence, Km for pNPG / Ki for glucose, pH 5.0, 50° C.), 0.22. The “loss of activity under glucose inhibition” value is listed as “lost activity completely” in experiment [2] (9 g/L initial glucose, 0.08 mM pNPG) and “activity was completely lost” in experiment [2] (36 g/L initial glucose, pNPG below 1.875 mM). Besides, in experiment [2] (36 g/L initial glucose, high pNPG concentration, relative to maximum activity without glucose), the “maximum relative activity under glucose inhibition” value amounted to 1.5%.

The record behind these values is US10077436B2, “Beta-glucosidase enzymes for increased biomass saccharification” (Edeniq, Inc., priority 2013, dated 2018).
